Publication PMC10508631, “Development of an antibody fused with an antimicrobial peptide targeting Pseudomonas aeruginosa: A new approach to prevent and treat bacterial infections” (PLOS Pathogens, 2023)
Values after ≈ are worked out from the molar mass of the structure shown. Where two headings read alike, the source gives them in different places. Where a SMILES comes first, the peptide text is derived from it.

Legend:
293T human cell line = assay: Mammalian cell cytotoxicity (CellTiter Glo); assay type: cell-based
Experimental: On day one, cells from an established 293T human cell line were seeded onto 96-well flat-bottom white plates (10,000 293T cells/well). On day two, dilution plates were prepared by diluting compound in cell growth medium to two times the final starting concentration and then carrying out serial two-fold dilutions across the plate. Medium from the cell growth assay plates was then aspirated, and 50 μl from the compound dilution plates were transferred to the assay plates. Fifty microliters of fresh media were then added to all the wells. The plates were incubated at 37°C, 5% CO2 for three days. […]. Media from the assay plates was aspirated, and 100 μl of CellTiter Glo/growth media mix was added to all wells. After five minutes, luminescence was read, and% inhibition vs. compound concentration was plotted.

P. aeruginosa ATCC 39324 = assay type: cell-based, Pseudomonas aeruginosa
Experimental: (§1) All plates were placed at 37°C overnight.

P. aeruginosa ATCC 27853 [1] = assay type: cell-based, Pseudomonas aeruginosa
Experimental: as §1

S. aureus 29213 = test system: S. aureus 29213
Experimental: (§2) MICs and a killing assay were performed in this study. MICs were determined according to CLSI guidelines, using 2-fold serial compound dilutions in 96-well microtiter plates. Briefly, compounds were diluted in water across a mother plate and then 2 μl were stamped to assay plates—one plate for each strain to be tested. Bacterial strains were sub-cultured overnight on agar plates at 37°C. […] These concentrated cultures were diluted 1:200 in growth media to approximately 5 x 10^5 cells/ml. All assay plates received 100 μL diluted culture per well. All plates were placed at 37°C overnight. […] Wells at and above the MIC should appear devoid of growth when visualized.

E. coli ATCC 25922 = settings: CLSI microdilution, 2-fold dilutions, ~5 x 10^5 cells/ml, 37°C, 18 hours; MIC = at least 80% growth inhibition
Experimental: as §2

P. aeruginosa ATCC 27853 [2] = assay: Synergy with antibiotics (MIC); assay type: cell-based, Pseudomonas aeruginosa; settings: for MIC of the antibiotic alone: P. aeruginosa ATCC 27853; for MIC of the antibiotic in the presence of VSX-1: increasing amounts of VSX-1 (from 0.015 to 4 μg/mL), Fig 4 legend says P297
Experimental: as §1

[3] = 293T cells, 10,000 cells/well, three days, 37°C, CellTiter Glo luminescence
[4] = CLSI microdilution, 2-fold dilutions, ~5 x 10^5 cells/ml, 37°C, 18 hours, MIC = at least 80% growth inhibition
[5] = CLSI microdilution, 2-fold dilutions, ~5 x 10^5 cells/ml, 37°C, 18 hours, MIC = lowest concentration inhibiting growth by at least 80%

## CC[C@H](C)[C@H](NC(=O)CNC(=O)CNC(=O)CNC(=O)CN)C(=O)NCC(=O)N[C@@H](CCCCN)C(=O)N[C@@H](Cc1ccccc1)C(=O)N[C@@H](CC(C)C)C(=O)N[C@@H](CCCCN)C(=O)N[C@@H](CCCCN)C(=O)N[C@@H](C)C(=O)N[C@@H](CCCCN)C(=O)N[C@@H](CCCCN)C(=O)N[C@@H](Cc1ccccc1)C(=O)NCC(=O)N[C@@H](CCCCN)C(=O)N[C@@H](C)C(=O)N[C@@H](Cc1ccccc1)C(=O)N[C@H](C(=O)N[C@@H](CCCCN)C(=O)N[C@H](C(=O)N[C@@H](CC(C)C)C(=O)N[C@@H](CCCCN)C(=O)N[C@@H](CCCCN)C(=O)O)[C@@H](C)CC)C(C)C [P261] (H-GGGGIGKFLKKAKKFGKAFVKILKK-OH)
293T human cell line; [3]
  Cytotox CC50: 250 µg/mL
P. aeruginosa ATCC 39324; [4]
  MIC P. aeruginosa ATCC 39324: 8 µg/mL (≈ 3.02 µM)

## CC[C@H](C)[C@H](NC(=O)[C@@H](NC(=O)[C@@H]1CCCN1C(=O)[C@H](CO)NC(=O)[C@H](CC(C)C)NC(=O)[C@H](CCCCN)NC(=O)[C@H](CCCCN)NC(=O)[C@H](Cc1ccccc1)NC(=O)[C@H](CC(C)C)NC(=O)[C@H](CCCCN)NC(=O)[C@H](CCCCN)NC(=O)[C@H](Cc1ccccc1)NC(=O)[C@H](CCCCN)NC(=O)[C@H](CCCCN)NC(=O)[C@H](CCCNC(=N)N)NC(=O)[C@H](Cc1ccccc1)NC(=O)[C@H](CCCNC(=N)N)NC(=O)[C@H](CCCCN)NC(=O)[C@H](Cc1ccccc1)NC(=O)[C@H](CCCNC(=N)N)NC(=O)CNC(=O)CNC(=O)CNC(=O)CN)C(C)C)C(=O)N1CCC[C@H]1C(=O)N[C@@H](CC(C)C)C(=O)N[C@@H](CC(C)C)C(=O)N[C@@H](Cc1c[nH]cn1)C(=O)N[C@@H](CC(C)C)C(=O)NCC(=O)O [P267] (H-GGGGRFKRFRKKFKKLFKKLSPVIPLLHLG-OH)
P. aeruginosa ATCC 27853 [1]; ATCC 27853, 18 h
  MIC P. aeruginosa ATCC 27853: 4 µg/mL (≈ 1.16 µM)
P. aeruginosa ATCC 39324; ATCC 39324, 18 h
  MIC P. aeruginosa ATCC 39324: 4 µg/mL (≈ 1.16 µM)
S. aureus 29213; 29213, 18 h
  MIC S. aureus 29213: 16 µg/mL (≈ 4.63 µM)

## CC[C@H](C)[C@H](NC(=O)[C@H](CCCCN)NC(=O)[C@H](CCCCN)NC(=O)[C@H](CC(C)C)NC(=O)[C@H](CCCCN)NC(=O)[C@H](CCC(=O)O)NC(=O)[C@H](CCCCN)NC(=O)[C@@H](NC(=O)[C@H](CCCCN)NC(=O)[C@H](CC(N)=O)NC(=O)[C@H](CCCNC(=N)N)NC(=O)[C@H](Cc1ccccc1)NC(=O)[C@H](CCCCN)NC(=O)[C@H](CCCNC(=N)N)NC(=O)[C@H](CC(C)C)NC(=O)[C@H](CCCNC(=N)N)NC(=O)[C@H](CCCCN)NC(=O)[C@H](CCCNC(=N)N)NC(=O)[C@H](CC(C)C)NC(=O)CNC(=O)CNC(=O)CNC(=O)CN)[C@@H](C)CC)C(=O)NCC(=O)N[C@@H](CCC(N)=O)C(=O)N[C@@H](CCCCN)C(=O)N[C@H](C(=O)N[C@@H](CCC(N)=O)C(=O)NCC(=O)N[C@@H](CC(C)C)C(=O)N[C@@H](CC(C)C)C(=O)N1CCC[C@H]1C(=O)N[C@@H](CCCCN)C(=O)N[C@@H](CC(C)C)C(=O)N[C@@H](C)C(=O)O)[C@@H](C)CC [P271] (H-GGGGLRKRLRKFRNKIKEKLKKIGQKIQGLLPKLA-OH)
293T human cell line; [3]
  Cytotox CC50: 250 µg/mL
P. aeruginosa ATCC 39324; [4]
  MIC P. aeruginosa ATCC 39324: 8 µg/mL (≈ 2.01 µM)

## CSCC[C@H](NC(=O)[C@H](CO)NC(=O)[C@H](C)NC(=O)[C@H](C)NC(=O)[C@H](C)NC(=O)[C@H](C)NC(=O)[C@H](C)NC(=O)[C@H](C)NC(=O)[C@H](C)NC(=O)[C@H](CC(N)=O)NC(=O)[C@H](C)NC(=O)[C@H](C)NC(=O)[C@@H](NC(=O)[C@H](CC(C)C)NC(=O)[C@H](C)NC(=O)[C@H](C)NC(=O)[C@H](C)NC(=O)[C@H](C)NC(=O)[C@H](C)NC(=O)[C@H](C)NC(=O)[C@H](CC(=O)O)NC(=O)[C@H](CO)NC(=O)[C@H](C)NC(=O)[C@@H](NC(=O)[C@H](Cc1c[nH]cn1)NC(=O)CNC(=O)CNC(=O)CN)[C@@H](C)O)[C@@H](C)O)C(=O)N[C@@H](C)C(=O)O [P292] (H-GGGHTASDAAAAAALTAANAAAAAAASMA-OH)
293T human cell line; [3]
  Cytotox CC50: 250 µg/mL
P. aeruginosa ATCC 27853 [1]; [5]
  MIC P. aeruginosa ATCC 27853: > 128 µg/mL
P. aeruginosa ATCC 39324; [4]
  MIC P. aeruginosa ATCC 39324: > 128 µg/mL
S. aureus 29213; [4]
  MIC S. aureus 29213: > 128 µg/mL
E. coli ATCC 25922
  MIC E. coli ATCC 25922: > 128 µg/mL

## CC[C@H](C)[C@H](NC(=O)[C@H](CCCCN)NC(=O)[C@H](CCCNC(=N)N)NC(=O)CNC(=O)[C@H](CC(C)C)NC(=O)[C@H](CCCNC(=N)N)NC(=O)[C@H](CCCNC(=N)N)NC(=O)[C@H](CC(C)C)NC(=O)CNC(=O)[C@H](CCCNC(=N)N)NC(=O)CNC(=O)CNC(=O)CN)C(=O)N[C@@H](C)C(=O)N[C@@H](Cc1c[nH]cn1)C(=O)NCC(=O)N[C@H](C(=O)N[C@@H](CCCCN)C(=O)N[C@@H](CCCCN)C(=O)N[C@@H](Cc1ccc(O)cc1)C(=O)NCC(=O)N1CCC[C@H]1C(=O)N[C@H](C(=O)N[C@H](C(=O)N[C@@H](CC(C)C)C(=O)N[C@@H](CCCNC(=N)N)C(=O)N[C@H](C(=O)N[C@H](C(=O)N[C@@H](CCCCN)C(=O)N[C@@H](CCCCN)C(=O)N[C@@H](Cc1ccc(O)cc1)C(=O)NCC(=O)O)[C@@H](C)CC)[C@@H](C)CC)C(C)C)[C@@H](C)O)C(C)C [P294] (H-GGGRGLRRLGRKIAHGVKKYGPTVLRIIKKYG-OH)
P. aeruginosa ATCC 39324; ATCC 39324, 18 h
  MIC P. aeruginosa ATCC 39324: 2 µg/mL (≈ 0.57 µM)

## CC[C@H](C)[C@H](NC(=O)[C@@H](NC(=O)[C@@H]1CCCN1C(=O)[C@H](CO)NC(=O)[C@H](CC(C)C)NC(=O)[C@H](CCCCN)NC(=O)[C@H](CCCCN)NC(=O)[C@H](Cc1ccccc1)NC(=O)[C@H](CC(C)C)NC(=O)[C@H](CCCCN)NC(=O)[C@H](CCCCN)NC(=O)[C@H](Cc1ccccc1)NC(=O)[C@H](CCCCN)NC(=O)[C@H](CCCCN)NC(=O)[C@H](CCCNC(=N)N)NC(=O)[C@H](Cc1ccccc1)NC(=O)[C@H](CCCNC(=N)N)NC(=O)[C@H](CCCCN)NC(=O)[C@H](Cc1ccccc1)NC(=O)[C@H](CCCNC(=N)N)NC(=O)CNC(=O)CNC(=O)CNC(=O)CN)C(C)C)C(=O)N1CCC[C@H]1C(=O)N[C@@H](CC(C)C)C(=O)N[C@@H](CC(C)C)C(=O)N[C@@H](Cc1c[nH]cn1)C(=O)N[C@@H](CC(C)C)C(=O)NCC(=O)O [P295] (H-GGGGRFKRFRKKFKKLFKKLSPVIPLLHLG-OH)
293T human cell line
  Cytotox CC50: 95 µg/mL
P. aeruginosa ATCC 27853 [1]; ATCC 27853, 18 h
  MIC P. aeruginosa ATCC 27853: 4 µg/mL (≈ 1.16 µM)
P. aeruginosa ATCC 39324; ATCC 39324, 18 h
  MIC P. aeruginosa ATCC 39324: 4 µg/mL (≈ 1.16 µM)

## CC[C@H](C)[C@H](NC(=O)[C@@H](NC(=O)[C@H](CCCNC(=N)N)NC(=O)[C@@H]1CCCN1C(=O)[C@H](CCCCN)NC(=O)[C@H](CCCCN)NC(=O)[C@H](Cc1ccccc1)NC(=O)[C@H](Cc1ccccc1)NC(=O)[C@H](CCCCN)NC(=O)[C@H](CCCCN)NC(=O)[C@H](C)NC(=O)[C@H](CCCNC(=N)N)NC(=O)[C@H](CCCCN)NC(=O)[C@H](CCCCN)NC(=O)[C@@H](NC(=O)[C@H](CO)NC(=O)[C@H](CC(N)=O)NC(=O)[C@H](CCCCN)NC(=O)[C@H](CC(C)C)NC(=O)[C@H](CCCCN)NC(=O)[C@H](CCCCN)NC(=O)[C@H](Cc1ccccc1)NC(=O)[C@H](Cc1ccccc1)NC(=O)[C@H](CCCCN)NC(=O)[C@H](CCCCN)NC(=O)[C@H](Cc1ccccc1)NC(=O)[C@H](CCCNC(=N)N)NC(=O)[C@H](CCCCN)NC(=O)CNC(=O)CNC(=O)CN)C(C)C)C(C)C)C(=O)NCC(=O)N[C@H](C(=O)N[C@@H](CO)C(=O)N[C@H](C(=O)N1CCC[C@H]1C(=O)N[C@@H](Cc1ccccc1)C(=O)O)[C@@H](C)CC)C(C)C [P296] (H-GGGKRFKKFFKKLKNSVKKRAKKFFKKPRVIGVSIPF-OH)
293T human cell line; [3]
  Cytotox CC50: 400 µg/mL
P. aeruginosa ATCC 27853 [1]; [5]
  MIC P. aeruginosa ATCC 27853: 4 µg/mL (≈ 0.925 µM)
P. aeruginosa ATCC 39324; [4]
  MIC P. aeruginosa ATCC 39324: 2 µg/mL (≈ 0.462 µM)

## C[C@@H](O)[C@H]1C(=O)N2C(C(=O)O)=C(S[C@@H]3CN[C@H](C(=O)N(C)C)C3)[C@H](C)[C@H]12 [meropenem]
P. aeruginosa ATCC 27853 [2]
  MIC of the antibiotic alone: 0.5 µg/mL
  MIC of the antibiotic in the presence of VSX-1: < 0.1 µg/mL

## NC[C@H]1O[C@H](O[C@H]2[C@H](O)[C@@H](O[C@H]3O[C@H](CO)[C@@H](O)[C@H](N)[C@H]3O)[C@H](N)C[C@@H]2N)[C@H](N)C[C@@H]1O [tobramycin]
P. aeruginosa ATCC 27853 [2]; Fig 4 legend
  synergy: MIC of the antibiotic in the presence of P297: did not exhibit an enhanced MIC

## colistin
P. aeruginosa ATCC 27853 [2]
  MIC of the antibiotic alone: ~ 1 μg/ml
  MIC of the antibiotic in the presence of VSX-1: < 0.1 µg/mL
